The values that follow come from patent publication US20140140931A1, “ANTIOXIDANT, NEUROPROTECTIVE AND ANTINEOPLASTIC NANOPARTICLES COMPRISING A THERAPEUTIC AGENT ON AN AMPHIPHILIC SPACER OR AN AMPHIPHILIC POLYMER” (CEDARS-SINAI MEDICAL CENTER, priority 2011, published 2014).

The conditions of data set [1]: cited from earlier work.
For data set [2] the following is noted: 30 minutes after administration; cited from earlier work.
Another data set relates to P-glycoprotein (Pgp). The settings on record: cited from earlier work.
The subject of data set [3] is intracranial U87 MG tumor xenograft. Nature of the data set: Survival study of mice with intracranial U87 MG GBM xenograft. In kind it is in vivo, athymic nu/nu mice. The settings on record: i.v. every three days for 4 weeks from day 7 (16 mg/kg/day CPT-TEG-ALA).
Method: All animal studies were performed according to Cedars-Sinai Medical Center Institutional Animal Care and Use Committee protocols. Female 6- to 8-week-old athymic nu/nu mice (Charles River Laboratories) were used for all experiments. […] For Intracranial tumor model, mice underwent intracranial stereotactic implantation of U87 MG cells. Mice were anesthetized using a ketamine and dexmedetomidine combination as a single intraperitoneal injection. 10^5 U87 MG cells suspended in 2 μl of PBS were implanted in the right frontal region of the brain using a Hamilton syringe. The animals received intraperitoneal injection of atipamezole to reverse the dexmedetomidine effect. A single subcutaneous injection of buprenorphine was administered for pain relief.
Two perpendicular diameters of the tumor are measured, and the volume is calculated according to the equation: V (mm^3)=L (mm)×W^2 (mm^2)/2, where L is the longest diameter and W is the diameter perpendicular to L. In the intracranial model, the animals (n=8) received intravenous (tail vein) injection of nanoprodrugs (16 mg/kg/day CPT-TEG-ALA) beginning 7 days after tumor implantation every three days for 4 weeks. […] As control, animals received injection of irinotecan, α-tocopherol nanosuspension, and saline
For mouse survival study, log-rank statistical analysis was performed. […]

In the case of `CC[C@@]1(O)C(=O)OCc2c1cc1n(c2=O)Cc2cc3ccccc3nc2-1` [camptothecin, (S)-4-ethyl-4-hydroxy-1H-pyran-[3′,4′:6, 7]indolizino[1,2-b]quinoline-3,14(4H, 12H)-dione], in data set [1], the Solubility in water entry is listed as “essentially insoluble in water”. Moreover, in data set [2], the “Lactone form hydrolyzed to an open ring” value is 50%.
On to `CCc1c2c(nc3ccc(OC(=O)N4CCC(N5CCCCC5)CC4)cc13)-c1cc3c(c(=O)n1C2)COC(=O)[C@]3(O)CC` [irinotecan], for which the Pgp substrate entry with P-glycoprotein (Pgp) is reported as “substrates”. In data set [3], this molecule yielded a Median survival time of 41.0 days.
Regarding `CCc1c2c(nc3ccc(O)cc13)-c1cc3c(c(=O)n1C2)COC(=O)[C@]3(O)CC` [SN38], the Pgp substrate result in the data set with P-glycoprotein (Pgp) is reported as “substrates”.
